This is an account of results in patent US20260365646A1, “AKT1 MODULATORS” (Alterome Therapeutics, Inc., priority 2022, published 2026).

Usually EC50 stands for the midpoint of the concentration-response curve.

T1 sequence (P31749 whole entry E17K): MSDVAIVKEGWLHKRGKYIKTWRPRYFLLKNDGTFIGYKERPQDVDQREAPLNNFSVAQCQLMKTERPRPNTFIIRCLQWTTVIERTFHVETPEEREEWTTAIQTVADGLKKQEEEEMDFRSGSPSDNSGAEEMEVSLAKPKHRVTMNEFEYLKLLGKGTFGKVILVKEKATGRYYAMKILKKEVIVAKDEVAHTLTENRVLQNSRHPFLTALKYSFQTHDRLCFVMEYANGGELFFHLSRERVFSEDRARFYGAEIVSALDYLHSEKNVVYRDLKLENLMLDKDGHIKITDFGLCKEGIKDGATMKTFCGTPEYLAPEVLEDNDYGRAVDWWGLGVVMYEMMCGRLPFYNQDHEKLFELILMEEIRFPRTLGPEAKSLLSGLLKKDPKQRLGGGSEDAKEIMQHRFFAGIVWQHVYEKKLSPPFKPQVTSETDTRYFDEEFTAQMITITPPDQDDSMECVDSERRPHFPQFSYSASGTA

One test addresses T1, full length AKT E17K (Homo sapiens, UniProt P31749, E17K).
T1 construct: host or cells: HEK-293 (ATCC CRL-1573)
Description: NanoBRET Target Engagement (TE) Intracellular Kinase Assay. It is filed as cell-based.
Conditions: not given
From the text:
The NanoBRET™ Target Engagement (TE) Intracellular Kinase Assays are based on the NanoBRET™ System (Promega Corporation), an energy transfer technique designed to measure molecular proximity in living cells. The NanoBRET™ TE Assays measure the apparent affinity of test compounds by competitive displacement of the NanoBRET™ tracer compound, which is a cell permeable molecule engineered to be reversibly bound to a NanoLuc® luciferase-kinase fusion expressed in cells. For compound screening, when a test compound binds to the selected kinase, the BRET signal is attenuated. […] All cells were evaluated for viability prior to transfection and optimization of the transfection was done prior to experimentation. […] Following transfection, cells were washed and resuspended in Opti-MEM. NanoBRET assays were performed in white, 384-well plates (Corning) at a density of 2×10^5 cells/well. All example compounds were prepared as concentrated stock solutions in DMSO (Sigma-Aldrich). Compounds are dissolved in DMSO to make 10 mM stock solution. […] A Labcyte ECHO 550 compound dispenser was used to facilitate compound transfer directly to cells. Cells were equilibrated for 2 hr with energy transfer probes and example compound prior to BRET measurements. […] For target engagement analysis, the energy transfer probes were added to the cells at concentrations optimized for the target in question (AKT E17K). Following compound incubation, NanoBRET NanoGlo Substrate (Promega Cat #Ni57D) and Extracellular Nanoluc Inhibitor (Promega Cat #N235C) was added according to the manufacturer's recommended protocol, and luminescence was measured on Envision Reader (Perkin Elmer) Multimode Luminometer equipped with 450 nm BPfilter (donor) and 600 nm LPfilter (acceptor), using 0.5 s integration time. Milli-BRET units (mBU) are calculated by multiplying the raw BRET values by 1000. Apparent tracer affinity values (EC50) were determined using the sigmoidal dose-response (variable slope). Competitive displacement data were then plotted and data were fit to determine the EC50 value for each example compound.
On the technique in general: In BRET a luciferase serves as donor, and the signal depends on an acceptor being close.
`COc1c(N2CCN(Cc3ccc(-n4c(-c5cccnc5N)nc5ccc(-c6ccccc6)nc54)cc3)C[C@@H]2CO)c(=O)c1=O` [Example 79, (R)-3-(4-(4-(2-(2-aminopyridin-3-yl)-5-phenyl-3H-imidazo[4,5-b]pyridin-3-yl)benzyl)-2-(hydroxymethyl)piperazin-1-yl)-4-methoxycyclobut-3-ene-1,2-dione] displayed an EC50 of 0.06 to 0.6 µM.
Compound `COc1c(Nc2cccc(C(=O)NCc3ccc(-n4c(-c5cccnc5N)nc5ccc(-c6ccccc6)nc54)cc3)c2)c(=O)c1=O` [Example 33, N-(4-(2-(2-aminopyridin-3-yl)-5-phenyl-3H-imidazo[4,5-b]pyridin-3-yl)benzyl)-3-((2-methoxy-3,4-dioxocyclobut-1-en-1-yl)amino)benzamide] displayed an EC50 of 0.06 to 0.6 µM.
Turning to `COc1c(N2CC3(CN(Cc4ccc(-n5c(-c6cccnc6N)nc6ccc(-c7ccccc7)nc65)cc4)C3)C2)c(=O)c1=O` [Example 41, 3-(6-(4-(2-(2-Aminopyridin-3-yl)-5-phenyl-3H-imidazo[4,5-b]pyridin-3-yl)benzyl)-2,6-diazaspiro[3.3]heptan-2-yl)-4-methoxycyclobut-3-ene-1,2-dione], the EC50 was above 0.6 µM.
`COc1c(N2CCCC3(CCN(Cc4ccc(-n5c(-c6cccnc6N)nc6ccc(-c7ccccc7)nc65)cc4)C3)C2)c(=O)c1=O` (stereo not shown) [Example 58, 3-(2-(4-(2-(2-Aminopyridin-3-yl)-5-phenyl-3H-imidazo[4,5-b]pyridin-3-yl)benzyl)-2,7-diazaspiro[4.5]decan-7-yl)-4-methoxycyclobut-3-ene-1,2-dione] yielded an EC50 of 0.015 to 0.06 µM.
On the same count and under the same terms, the value for `CCSc1c(N(C2CC2)C2CCN(Cc3ccc(-n4c(-c5cccnc5N)nc5ccc(-c6ccccc6)nc54)cc3)CC2)c(=O)c1=O` [Example 96, 3-((1-(4-(2-(2-aminopyridin-3-yl)-5-phenyl-3H-imidazo[4,5-b]pyridin-3-yl)benzyl)piperidin-4-yl)(cyclopropyl)amino)-4-(ethylthio)cyclobut-3-ene-1,2-dione] was 0.015 to 0.06 µM; that for `Nc1ncccc1-c1nc2ccc(-c3ccccc3)nc2n1-c1ccc(CN2CCN(c3c(O)c(=O)c3=O)CC2)cc1` [Example 22, 3-(4-(4-(2-(2-Aminopyridin-3-yl)-5-phenyl-3H-imidazo[4,5-b]pyridin-3-yl)benzyl)piperazin-1-yl)-4-hydroxycyclobut-3-ene-1,2-dione] was above 0.6 µM.
Compound `COc1c(NC2CCCCN(Cc3ccc(-n4c(-c5cccnc5N)nc5ccc(-c6ccccc6)nc54)cc3)C2)c(=O)c1=O` (stereo not shown) [Example 74, 3-((1-(4-(2-(2-aminopyridin-3-yl)-5-phenyl-3H-imidazo[4,5-b]pyridin-3-yl)benzyl)azepan-3-yl)amino)-4-methoxycyclobut-3-ene-1,2-dione] returned an EC50 of 0.06 to 0.6 µM.
As for `Nc1ncccc1-c1nc2ccc(-c3ccccc3)nc2n1-c1ccc(CN2CCN(c3c(OC4CCCC4)c(=O)c3=O)CC2)cc1` [Example 26, 3-(4-(4-(2-(2-aminopyridin-3-yl)-5-phenyl-3H-imidazo[4,5-b]pyridin-3-yl)benzyl)piperazin-1-yl)-4-(cyclopentyloxy)cyclobut-3-ene-1,2-dione], the EC50 was above 0.6 µM.
Compound `COc1c(NC2CCN(C(=O)c3ccc(-n4c(-c5cccnc5N)nc5ccc(-c6ccccc6)nc54)cc3)CC2)c(=O)c1=O` [Example 28, 3-((1-(4-(2-(2-Aminopyridin-3-yl)-5-phenyl-3H-imidazo[4,5-b]pyridin-3-yl)benzoyl)piperidin-4-yl)amino)-4-methoxycyclobut-3-ene-1,2-dione] came in with an EC50 above 0.6 µM.
`COc1c(NC2CCC3(CC2)CCN(Cc2ccc(-n4c(-c5cccnc5N)nc5ccc(-c6ccccc6)nc54)cc2)C3)c(=O)c1=O` (stereo not shown) [Example 52, 3-((2-(4-(2-(2-Aminopyridin-3-yl)-5-phenyl-3H-imidazo[4,5-b]pyridin-3-yl)benzyl)-2-azaspiro[4.5]decan-8-yl)amino)-4-methoxycyclobut-3-ene-1,2-dione] came in with an EC50 of 0.015 to 0.06 µM.
Take `CC(C)Oc1c(NC2CCN(Cc3ccc(-n4c(-c5cccnc5N)nc5ccc(-c6ccccc6)nc54)cc3)CC2)c(=O)c1=O` [Example 11, 3-((1-(4-(2-(2-aminopyridin-3-yl)-5-phenyl-3H-imidazo[4,5-b]pyridin-3-yl)benzyl)piperidin-4-yl)amino)-4-isopropoxycyclobut-3-ene-1,2-dione]: the EC50 fell in the range of 0.015 to 0.06 µM.

Staying with this test, now noted: read-out: NanoBRET AKT1E17K EC50; HEK-293 cells transfected with NanoLuc-AKT E17K; competitive displacement of NanoBRET tracer; 2 hr equilibration; 10-point 3-fold dilution.
As for `COc1c(NC2CCCN(Cc3ccc(-n4c(-c5cccnc5N)nc5ccc(-c6ccccc6)nc54)cc3)CC2)c(=O)c1=O` (stereo not shown) [Example 73, 3-((1-(4-(2-(2-aminopyridin-3-yl)-5-phenyl-3H-imidazo[4,5-b]pyridin-3-yl)benzyl)azepan-4-yl)amino)-4-methoxycyclobut-3-ene-1,2-dione], the EC50 is below 0.015 µM.
As for `CCN(c1c(OC)c(=O)c1=O)C1CCN(Cc2ccc(-n3c(-c4cccnc4N)nc4ccc(-c5ccccc5)nc43)cc2)CC1` [Example 91, 3-((1-(4-(2-(2-aminopyridin-3-yl)-5-phenyl-3H-imidazo[4,5-b]pyridin-3-yl)benzyl)piperidin-4-yl)(ethyl)amino)-4-methoxycyclobut-3-ene-1,2-dione], the EC50 is below 0.015 µM.
On the same count and under the same terms, the figure for `CSc1c(N2CCC3(CC2)CN(Cc2ccc(-n4c(-c5cccnc5N)nc5ccc(-c6ccccc6)nc54)cc2)C3)c(=O)c1=O` [Example 64, 3-(2-(4-(2-(2-aminopyridin-3-yl)-5-phenyl-3H-imidazo[4,5-b]pyridin-3-yl)benzyl)-2,7-diazaspiro[3.5]nonan-7-yl)-4-(methylthio)cyclobut-3-ene-1,2-dione] is below 0.015 µM; for `COc1c(NC2CCN(Cc3ccc(-n4c(-c5cccnc5N)nc5ccc(-c6ccccc6)nc54)cc3)CC2)c(=O)c1=O` [Example 17, 3-((1-(4-(2-(2-Aminopyridin-3-yl)-5-phenyl-3H-imidazo[4,5-b]pyridin-3-yl)benzyl)piperidin-4-yl)amino)-4-methoxycyclobut-3-ene-1,2-dione] it is below 0.015 µM; for `CCSc1c(N2C[C@H]3CN(Cc4ccc(-n5c(-c6cccnc6N)nc6ccc(-c7ccccc7)nc65)cc4)C[C@H]3C2)c(=O)c1=O` [Example 88, 3-((3aR,6aS)-5-(4-(2-(2-aminopyridin-3-yl)-5-phenyl-3H-imidazo[4,5-b]pyridin-3-yl)benzyl)hexahydropyrrolo[3,4-c]pyrrol-2(1H)-yl)-4-(ethylthio)cyclobut-3-ene-1,2-dione] it is below 0.015 µM.
Same read-out and setting: the value for `COc1c(N2CC3CCC2CN3Cc2ccc(-n3c(-c4cccnc4N)nc4ccc(-c5ccccc5)nc43)cc2)c(=O)c1=O` (stereo not shown) [Example 63, 3-(5-(4-(2-(2-aminopyridin-3-yl)-5-phenyl-3H-imidazo[4,5-b]pyridin-3-yl)benzyl)-2,5-diazabicyclo[2.2.2]octan-2-yl)-4-methoxycyclobut-3-ene-1,2-dione] was below 0.015 µM; that for `COc1c(N2CC3CCC(C2)N3Cc2ccc(-n3c(-c4cccnc4N)nc4ccc(-c5ccccc5)nc43)cc2)c(=O)c1=O` [Example 71, 3-(8-(4-(2-(2-aminopyridin-3-yl)-5-phenyl-3H-imidazo[4,5-b]pyridin-3-yl)benzyl)-3,8-diazabicyclo[3.2.1]octan-3-yl)-4-methoxycyclobut-3-ene-1,2-dione] was below 0.015 µM; that for `COc1c(N(CCO)C2CCN(Cc3ccc(-n4c(-c5cccnc5N)nc5ccc(-c6ccccc6)nc54)cc3)CC2)c(=O)c1=O` [Example 48, 3-((1-(4-(2-(2-Aminopyridin-3-yl)-5-phenyl-3H-imidazo[4,5-b]pyridin-3-yl)benzyl)piperidin-4-yl)(2-hydroxyethyl)amino)-4-methoxycyclobut-3-ene-1,2-dione] was below 0.015 µM.
Regarding `COc1c(NC2CCN(Cc3ccc(-n4c(-c5cccnc5N)nc5cc(-c6ccccc6)cnc54)cc3)CC2)c(=O)c1=O` [Example 10, 3-((1-(4-(2-(2-Aminopyridin-3-yl)-6-phenyl-3H-imidazo[4,5-b]pyridin-3-yl)benzyl)piperidin-4-yl)amino)-4-methoxycyclobut-3-ene-1,2-dione], the EC50 is below 0.015 µM.
On the same count and under the same terms, the value for `CSc1c(NC2CCN(Cc3ccc(-n4c(-c5cccnc5N)nc5ccc(-c6ccccc6)nc54)cc3)CC2)c(=O)c1=O` [Example 45, 3-((1-(4-(2-(2-aminopyridin-3-yl)-5-phenyl-3H-imidazo[4,5-b]pyridin-3-yl)benzyl)piperidin-4-yl)amino)-4-(methylthio)cyclobut-3-ene-1,2-dione] was below 0.015 µM.
`COc1c(N[C@H]2CCN(Cc3ccc(-n4c(-c5cccnc5N)nc5ccc(-c6ccccc6)nc54)cc3)C2)c(=O)c1=O` [Example 30, (S)-3-((1-(4-(2-(2-Aminopyridin-3-yl)-5-phenyl-3H-imidazo[4,5-b]pyridin-3-yl)benzyl)pyrrolidin-3-yl)amino)-4-methoxycyclobut-3-ene-1,2-dione]: the EC50 is below 0.015 µM.
